This note sets out measurements from patent publication US10722514B2 (FLX Bio, Inc., priority 2017, dated 2020).

The assay has as its target T1, recombinant full-length USP7 (Homo sapiens, UniProt Q93009).
T1 construct: A 25 μl reaction volume containing recombinant full-length USP7 (62 pM)
The assay is described as follows: USP7-mediated ubiquitin-rhodamine cleavage assay. The format is biochemical. Conditions: recombinant full-length USP7 62 pM; ubiquitin-rhodamine 100 nM; 30-minute pre-incubation, 1 hour reaction at room temperature; read-out: Potency (USP7 IC50). The method, boiled down: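 Compounds are first incubated with 62 pM enzyme for 30 min at room temperature in pH 7.3 HEPES buffer containing TCEP and BSA. Cleavage of 100 nM ubiquitin-rhodamine proceeds for 1 h before an acid quench, and IC50 is derived from fluorescence.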

pIC50: −log10 of the molar value.

T1 sequence (Q93009 whole entry): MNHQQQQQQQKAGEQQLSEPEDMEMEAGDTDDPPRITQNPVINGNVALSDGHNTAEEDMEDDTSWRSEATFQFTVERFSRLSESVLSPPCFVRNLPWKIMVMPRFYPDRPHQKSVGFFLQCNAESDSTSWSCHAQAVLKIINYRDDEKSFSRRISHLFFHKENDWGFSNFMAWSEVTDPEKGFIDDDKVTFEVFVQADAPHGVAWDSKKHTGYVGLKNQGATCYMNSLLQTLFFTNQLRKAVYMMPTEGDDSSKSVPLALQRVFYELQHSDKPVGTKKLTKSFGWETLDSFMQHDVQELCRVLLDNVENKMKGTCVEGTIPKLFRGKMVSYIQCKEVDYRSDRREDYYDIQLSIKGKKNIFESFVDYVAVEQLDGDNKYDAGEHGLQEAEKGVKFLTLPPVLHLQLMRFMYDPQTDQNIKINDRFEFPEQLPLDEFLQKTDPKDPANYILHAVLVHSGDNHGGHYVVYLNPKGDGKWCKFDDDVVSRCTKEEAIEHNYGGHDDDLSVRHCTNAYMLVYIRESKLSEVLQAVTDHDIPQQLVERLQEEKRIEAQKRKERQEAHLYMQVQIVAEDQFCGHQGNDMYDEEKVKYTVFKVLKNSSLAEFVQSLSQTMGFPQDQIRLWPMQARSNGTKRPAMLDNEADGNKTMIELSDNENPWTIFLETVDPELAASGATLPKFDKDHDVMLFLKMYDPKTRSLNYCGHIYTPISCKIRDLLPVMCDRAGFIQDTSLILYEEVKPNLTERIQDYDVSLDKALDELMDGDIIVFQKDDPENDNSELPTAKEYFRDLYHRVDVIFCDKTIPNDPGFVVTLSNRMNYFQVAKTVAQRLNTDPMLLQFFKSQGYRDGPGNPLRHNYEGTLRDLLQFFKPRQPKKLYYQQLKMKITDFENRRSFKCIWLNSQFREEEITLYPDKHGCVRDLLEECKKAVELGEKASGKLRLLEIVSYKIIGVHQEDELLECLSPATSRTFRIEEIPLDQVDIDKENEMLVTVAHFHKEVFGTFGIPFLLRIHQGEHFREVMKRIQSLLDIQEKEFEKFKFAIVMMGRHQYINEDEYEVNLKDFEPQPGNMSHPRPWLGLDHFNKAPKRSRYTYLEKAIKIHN

Turning to `Cc1cc(Cl)cc(-c2ccnc3cc(Cn4c(=O)ccn(CC(F)(F)F)c4=O)sc23)c1O[C@H]1CCNC[C@H]1C` [Example 565, 3-[[7-[5-chloro-3-methyl-2-[[(3R,4S)-3-methyl-4-piperidyl]oxy]phenyl]thieno[3,2-b]pyridin-2-yl]methyl]-1-(2,2,2-trifluoroethyl)pyrimidine-2,4-dione], the negative logarithm of the IC50 (pIC50) was above 6.00.

For the molecule `Cc1cc(Cl)cc(-c2ccnc3cc(Cn4c(=O)ccn(CC(F)(F)F)c4=O)sc23)c1O[C@@H]1CNC[C@@H]1C` [Example 566, 3-[[7-[5-chloro-3-methyl-2-[(3S,4S)-4-methylpyrrolidin-3-yl]oxy-phenyl]thieno[3,2-b]pyridin-2-yl]methyl]-1-(2,2,2-trifluoroethyl)pyrimidine-2,4-dione], the negative-log IC50 (pIC50) is above 6.00.

For `Cc1cc(Cl)cc(-c2ccnc3cc(Cn4c(=O)ccn(CC(F)(F)F)c4=O)sc23)c1O[C@H]1CNC[C@@H]1C` [Example 567, 3-[[7-[5-chloro-3-methyl-2-[(3R,4S)-4-methylpyrrolidin-3-yl]oxy-phenyl]thieno[3,2-b]pyridin-2-yl]methyl]-1-(2,2,2-trifluoroethyl)pyrimidine-2,4-dione], the pIC50 was above 6.00.

Turning to `Cc1cc(Cl)cc(-c2ccnc3cc(Cn4c(=O)ccn(CC(F)(F)F)c4=O)sc23)c1OC1CCNCC1` [Example 568, 3-[[7-[5-chloro-3-methyl-2-(4-piperidyloxy)phenyl]thieno[3,2-b]pyridin-2-yl]methyl]-1-(2,2,2-trifluoroethyl)pyrimidine-2,4-dione], the negative logarithm of the IC50 (pIC50) is above 6.00.

As for `Cc1cc(Cl)cc(-c2ccnc3cc(Cn4c(=O)ccn(C)c4=O)sc23)c1O[C@H]1CCNC[C@@H]1F` [Example 569], the pIC50 is above 6.00.

As to `Cc1cc(Cl)cc(-c2ccnc3cc(Cn4c(=O)ccn(C)c4=O)sc23)c1O[C@@H]1CNCC[C@@H]1F` [Example 570, 3-[[7-[5-chloro-2-[[(3R,4S)-4-fluoro-3-piperidyl]oxy]-3-methyl-phenyl]thieno[3,2-b]pyridin-2-yl]methyl]-1-methyl-pyrimidine-2,4-dione], the negative-log IC50 (pIC50) is above 6.00.

In the case of `Cc1cc(Cl)cc(-c2ccnc3cc(Cn4c(=O)[nH]cc(C(F)(F)F)c4=O)sc23)c1O[C@H]1CCCNC1` [Example 571, 3-[[7-[5-chloro-3-methyl-2-[[(3S)-3-piperidyl]oxy]phenyl]thieno[3,2-b]pyridin-2-yl]methyl]-5-(trifluoromethyl)-1H-pyrimidine-2,4-dione], the pIC50 is above 6.00.

On to `Cc1cc(Cl)cc(-c2ccnc3cc(Cn4c(=O)ccn(C)c4=O)sc23)c1OC1CCNC(C)(C)C1` (stereo not shown) [Example 572, 3-[[7-[5-chloro-2-[(2,2-dimethyl-4-piperidyl)oxy]-3-methyl-phenyl]thieno[3,2-b]pyridin-2-yl]methyl]-1-methyl-pyrimidine-2,4-dione; 2,2,2-trifluoroacetic acid], for which the negative logarithm of the IC50 (pIC50) is above 6.00.

For the molecule `Cc1cc([N+](=O)[O-])cc(-c2ccnc3cc(Cn4c(=O)ccn(C)c4=O)sc23)c1O[C@H]1CCCNC1` [Example 573, 1-methyl-3-[[7-[3-methyl-5-nitro-2-[[(3S)-3-piperidyl]oxy]phenyl]thieno[3,2-b]pyridin-2-yl]methyl]pyrimidine-2,4-dione; 2,2,2-trifluoroacetic acid], the negative logarithm of the IC50 (pIC50) is above 6.00.

Regarding `Cc1cc(Cl)cc(-c2ccnc3cc(Cn4c(=O)ccn(CC(F)(F)F)c4=O)sc23)c1O[C@H]1CN[C@H](C(F)F)C1` [Example 574, 3-[[7-[5-chloro-2-[(3R,5S)-5-(difluoromethyl)pyrrolidin-3-yl]oxy-3-methyl-phenyl]thieno[3,2-b]pyridin-2-yl]methyl]-1-(2,2,2-trifluoroethyl)pyrimidine-2,4-dione], the pIC50 was above 6.00.

Take `Cc1cc(Cl)cc(-c2ccnc3cc(Cn4c(=O)ccn(C(C)C(F)(F)F)c4=O)sc23)c1O[C@H]1CCCNC1` (stereo partly drawn) [Example 575, 3-[[7-[5-chloro-3-methyl-2-[[(3S)-3-piperidyl]oxy]phenyl]thieno[3,2-b]pyridin-2-yl]methyl]-1-(2,2,2-trifluooro-1-methyl-ethyl)pyrimidine-2,4-dione]: the negative-log IC50 (pIC50) was above 6.00.

For `Cc1cc(Cl)cc(-c2ccnc3cc(Cn4c(=O)ccn(CC(F)(F)F)c4=O)sc23)c1OCCN` [Example 576, 3-[[7-[2-(2-aminoethoxy)-5-chloro-3-methyl-phenyl]thhieno[3,2-b]pyridin-2-yl]methyl]-1-(2,2,2-trifluoroethyl)pyrimidine-2,4-dione; 2,2,2-trifluoroacetic acid], the negative-log IC50 (pIC50) was above 6.00.

`Cc1cc(Cl)cc(-c2ccnc3cc(Cn4c(=O)ccn(CC(F)(F)F)c4=O)sc23)c1OC1CC2CC1CN2` (stereo not shown) [Example 577, 3-[[7-[2-(2-azabicyclo[2.2.1]heptan-5-yloxy)-5-chloro-3-methyl-phenyl]thieno[3,2-b]pyridin-2-yl]methyl]-1-(2,2,2-trifluoroethyl)pyrimidine-2,4-dione; 2,2,2-trifluoroacetic acid]: the negative-log IC50 (pIC50) was above 6.00.

Regarding `Cc1cc(Cl)cc(-c2ncnc3cc(Cn4c(=O)ccn(CC(F)(F)F)c4=O)sc23)c1O[C@H]1CNC[C@@H]1C` [Example 578, 3-[[4-[5-chloro-3-methyl-2-[(3R,4S)-4-methylpyrrolidin-3-yl]oxy-phenyl]thieno[3,2-d]pyrimidin-6-yl]methyl]-1-(2,2,2-trifluoroethyl)pyrimidine-2,4-dione], the pIC50 is above 6.00.

Turning to `Cc1cc(Cl)cc(-c2ccnc3cc(CN4C(=O)CCC4=O)sc23)c1O[C@H]1CCCN(CC(=O)O)C1` [Example 579, 2-[(3S)-3-[4-chloro-2-[2-[(2,5-dioxopyrrolidin-1-yl)methyl]thieno[3,2-b]pyridin-7-yl]-6-methyl-phenoxy]-1-piperidyl]acetic acid], the pIC50 is above 6.00.

As for `Cc1cc(Cl)cc(-c2ncnc3cc(Cn4c(=O)ccn(CC(F)(F)F)c4=O)sc23)c1O[C@H]1CCCNCC1` [Example 580, 3-[[4-[2-[(4S)-azepan-4-yl]oxy-5-chloro-3-methyl-phenyl]thieno[3,2-d]pyrimidin-6-yl]methyl]-1-(2,2,2-trifluoroethyl)pyrimidine-2,4-dione; 2,2,2-trifluoroacetic acid], the pIC50 was above 6.00.

On to `Cc1cc(Cl)cc(-c2ccnc3cc(Cn4c(=O)c(C(F)(F)F)cn(C)c4=O)sc23)c1O[C@H]1CCCNC1` [Example 581, 3-[[7-[5-chloro-3-methyl-2-[[(3S)-3-piperidyl]oxy]phenyl]thieno[3,2-b]pyridin-2-yl]methyl]-1-methyl-5-(trifluoromethyl)pyrimidine-2,4-dione; 2,2,2-trifluoroacetic acid], for which the pIC50 was above 6.00.

For `Cc1cc(Cl)cc(-c2ncnc3cc(Cn4c(=O)ccn(C)c4=O)sc23)c1O[C@H]1CCCNCC1` [Example 582, 3-[[4-[2-[(4S)-azepan-4-yl]oxy-5-chloro-3-methyl-phenyl]thieno[3,2-d]pyrimidin-6-yl]methyl]-1-methyl-pyrimidine-2,4-dione], the negative-log IC50 (pIC50) is above 6.00.

On to `Cc1cc(Cl)cc(-c2ccnc3cc(Cn4c(=O)ccn(CCC(F)(F)F)c4=O)sc23)c1O[C@H]1CCCNC1` [Example 583, 3-[[7-[5-chloro-3-methyl-2-[[(3S)-3-piperidyl]oxy]phenyl]thieno[3,2-b]pyridin-2-yl]methyl]-1-(3,3,3-trifluoropropyl)pyrimidine-2,4-dione], for which the pIC50 is above 6.00.

On to `Cc1cc(Cl)cc(-c2ncnc3cc(Cn4c(=O)ccn(CC(F)(F)F)c4=O)sc23)c1O[C@@H]1CCNC[C@@H]1C` [Example 584, 3-[[4-[5-chloro-3-methyl-2-[[(3S,4R)-3-methyl-4-piperidyl]oxy]phenyl]thieno[3,2-d]pyrimidin-6-yl]methyl]-1-(2,2,2-trifluoroethyl)pyrimidine-2,4-dione], for which the negative logarithm of the IC50 (pIC50) is above 6.00.

With `Cc1cc(Cl)cc(-c2ncnc3cc(Cn4c(=O)ccn(CC(F)(F)F)c4=O)sc23)c1O[C@H]1CCNC[C@H]1C` [Example 585, 3-[[4-[5-chloro-3-methyl-2-[[(3R,4S)-3-methyl-4-piperidyl]oxy]phenyl]thieno[3,2-d]pyrimidin-6-yl]methyl]-1-(2,2,2-trifluoroethyl)pyrimidine-2,4-dione], the negative-log IC50 (pIC50) is above 6.00.

`Cc1cc(Cl)cc(-c2ncnc3cc(Cn4c(=O)ccn(CC(F)(F)F)c4=O)sc23)c1O[C@H]1CC[C@](C)(N)C1` [Example 586, 3-[[4-[2-[(1S,3S)-3-amino-3-methyl-cyclopentoxy]-5-chloro-3-methyl-phenyl]thieno[3,2-d]pyrimidin-6-yl]methyl]-1-(2,2,2-trifluoroethyl)pyrimidine-2,4-dione; 2,2,2-trifluoroacetic acid]: the pIC50 was above 6.00.

Consider `Cc1cc(Cl)cc(-c2ncnc3cc(Cn4c(=O)ccn(CC(F)(F)F)c4=O)sc23)c1OC1CNC1` [Example 587, 3-[[4-[2-(azetidin-3-yloxy)-5-chloro-3-methyl-phenyl]thieno[3,2-d]pyrimidin-6-yl]methyl]-1-(2,2,2-trifluoroethyl)pyrimidine-2,4-dione], for which the negative-log IC50 (pIC50) was above 6.00.

For `Cc1cc(Cl)cc(-c2ccnc3cc(Cn4c(=O)ccn(C)c4=O)sc23)c1O[C@H]1CNCC[C@H]1C` [Example 588, 3-[[7-[5-chloro-3-methyl-2-[[(3R,4R)-4-methyl-3-piperidyl]oxy]phenyl]thieno[3,2-b]pyridin-2-yl]methyl]-1-methyl-pyrimidine-2,4-dione; 2,2,2-trifluoroacetic acid], the pIC50 is above 6.00.

For `Cc1cc(Cl)cc(-c2ccnc3cc(Cn4c(=O)ccn(CC(F)(F)F)c4=O)sc23)c1OC1CN2CCC1C2` [Example 589, 3-[[7-[2-[[(1S,3S,4R)-1-azabicyclo[2.2.1]heptan-3-yl]oxy]-5-chloro-3-methyl-phenyl]thieno[3,2-b]pyridin-2-yl]methyl]-1-(2,2,2-trifluoroethyl)pyrimidine-2,4-dione], the pIC50 is above 6.00.
